# Results as given in US20100144636A1, “PEPTIDES DERIVED FROM RAS-P21 AND USES THEREFOR” (THE RESEARCH FOUNDATION OF STATE UNIVERSITY OF NEW YORK, priority 2008, published 2010).
# Where no end group is shown, it is not given here.
# What was measured:
# [1] = system: insulin-induced oocyte maturation; experiment: Insulin-induced oocyte maturation (activated wild-type ras-p21); assay type: cell-based, Xenopus laevis; settings: oocytes induced to mature with insulin
# Excerpt: (§1) The Applicants have synthesized both of the inventive peptides, referred to as PNC-7 and PNC-2, and assayed them for their abilities to block oncogenic ras-p21 induction of maturation of Xenopus laevis oocytes. Injection of oncogenic, but not wild-type ras-p21, into these oocytes induce oocyte maturation, i.e., completion of the second meiotic division, as measured by germinal vesicle membrane breakdown (GVBD). Insulin also induces oocyte maturation in a manner that requires activation of endogenous wild-type ras-p21.
# [2] = biological target: oncogenic ras-p21 with raf (Homo sapiens, UniProt P04049); experiment: Interaction of oncogenic ras-p21 with raf; assay type: binding
# [3] = system: oncogenic (Val 12-containing) ras-p21-induced oocyte maturation; experiment: Oncogenic ras-p21-induced oocyte maturation (GVBD); assay type: cell-based, Xenopus laevis; settings: injected/co-injected with oncogenic ras-p21 into oocytes
# Excerpt: as §1
# [4] = system: oncogenic ras-p21-JNK interaction; experiment: Oncogenic ras-p21-JNK interaction; assay type: binding; settings: dose-response curve coincides with that for inhibition of oocyte maturation
# [5] = system: BMRPA1 normal rat pancreatic acinar cells; experiment: Growth and viability of untransformed BMRPA1 cells incubated with peptide; assay type: cell-based
# Description: (§2) MIAPaCa-2 cells were grown in Dulbecco's modified Eagle's medium (GIBCO) supplemented with heat inactivated 10% fetal calf serum, 20 mM glutamine, penicillin (100 units/ml), streptomycin (100/ug/ml) and plated on a six-well plate with density no more then 20,000 cells/well in 3 ml culture medium. HT1080 cells were cultured in RPMI 1640 medium supplemented with 10% heat-inactivated fetal calf serum, 100 units/ml of penicillin and 100 ug/ml streptomycin and plated on six-well plates with a density of no more then 6,000 cells/well in 3 ml culture medium. BMRPA1 normal rat pancreatic acinar cells were grown as described previously.
# (§3) All cells (approximately 2×10^4) were incubated in their respective media (see above) for 24 h after which the media were replaced with the same media containing one of the peptides at a concentration of 100 μg/ml. Over the subsequent time course of each experiment, the medium was changed every 48 h, but always contained peptide at the same concentration. Cells were observed daily for 1-3 weeks for changes in morphology and growth characteristics. After selected time periods, cells were stained with trypan blue or assayed using the MTT assay as described previously to assess cell counts. These experiments were performed at least three times for each cell line.
# [6] = system: caspase (CPP32) in MIA-PaCa-2 cells; experiment: Clontech caspase (CPP32) activity assay for apoptosis; assay type: cell-based, human; settings: relative to control background; TNF-alpha 20 ng/ml for 45 min as positive control (FIG. 4A)
# Description: To detect if peptide-induced cell death occurred by apoptosis or necrosis, the Clontech caspase (CPP32) activity assay for elevated caspase was performed as described previously. In addition, to detect if significant cell necrosis occurred, the CytoTox96 assay for LDH released into the cell culture medium was used as also described previously. As a positive control for LDH release, the CytoTox96 assay was performed on the media of MIA-PaCa-2 cells that were incubated with 100 ug/ml PNC-28 peptide for 24 h.
# [7] = system: HT-1080 fibrosarcoma cells; experiment: Growth (cell counts) of HT-1080 cells incubated with peptide; assay type: cell-based, human; settings: peptide 100 μg/ml, medium changed every 48 h; three-week observation period (FIG. 1)
# Description: as §2, §3
substance,measurement,setting,value
TIEDSYRQVVID (PNC-7- ras-p21 residue 35-47),inhibition of insulin-induced oocyte maturation,[1],considerably less inhibitory activity
same,blocking of the interaction of oncogenic ras-p21 with raf,[2],blocks the interaction of oncogenic ras-p21 with raf
same,inhibition of oncogenic ras-p21-induced oocyte maturation,[3],block
YREQIKRVKDSDDVP (PNC-2 -ras-p21 residue 96-110),inhibition of insulin-induced oocyte maturation,[1],considerably less inhibitory activity
same,inhibition of oncogenic ras-p21-induced oocyte maturation,[3],block
same,blocking of the oncogenic ras-p21-JNK interaction,[4],blocks the oncogenic ras-p21-JNK interaction
TIEDSYRQVVIDKKWKMRRNQFVKVQRG [PNC-7-MRP],cell growth or viability of untransformed BMRPA1 cells,[5],no effect either on cell growth or viability
TNF-alpha,caspase expression in MIA-PaCa-2 cells,[6],markedly elevated
YREQIKRVKDSDDVPKKWKMRRNQFVKVQRG [PNC-2-MRP],cell growth or viability of untransformed BMRPA1 cells,[5],no effect either on cell growth or viability
"MPFSTGKRIMLGEKKWKMRRNQFVKVQRG [PNC-29, reference compound]",cell growth or viability of untransformed BMRPA1 cells,[5],no effect either on cell growth or viability
NAVFRLLHEHKGKKAKKWKMRRNQFVKVQRG (CD45-MRP- Control peptide from the CD-45 antigen linked to penetratin) [CD-45-MRP],tumor cell growth / cell count of HT-1080 cells,[7],no effect on tumor cell growth
